Literature values, collected in PubChem BioAssay AID1259409 (Chemical Carcinogenesis Research Information System (CCRIS), 2018).

Tested on: rodent chemically induced tumor inhibition, incidence and multiplicity
Experiment: CCRIS tumor inhibitor studies
Settings: Route [Inhibitor]: ORAL

In the case of `CC1=C(/C=C/C(C)=C/C=C/C(C)=C/C(=O)Nc2ccc(O)cc2)C(C)(C)CCC1`, the “tumour outcome (control, treated, inhibition, significance)” value (Carcinogen: 1,2-DIMETHYLHYDRAZINE, 540-73-8, Dose [Inhibitor]: 2.0 MMOL/KG DIET DAILY STARTING 12 D AFTER CARCINOGEN TREATMENT THROUGH ABOUT 8 MO AFTER CARCINOGEN DOSE (STUDY DURATION, Species: RAT, Strain/Sex: F344/MALE, Target Tissue: Type of Lesion: COLON: ADENOCARCINOMA, Dose [Carcinogen]: 150 MG/KG BW ONCE, Promoter: NONE USED) is given as 10/39 (26%), 5/30 (17%), 35%, not significant, the “tumour outcome (control, treated, inhibition, significance)” value (Carcinogen: 1,2-DIMETHYLHYDRAZINE, 540-73-8, Dose [Inhibitor]: 2.0 MMOL/KG DIET DAILY STARTING 12 D AFTER CARCINOGEN TREATMENT THROUGH ABOUT 8 MO AFTER CARCINOGEN DOSE (STUDY DURATION, Species: RAT, Strain/Sex: F344/MALE, Target Tissue: Type of Lesion: COLON: ADENOMA, Dose [Carcinogen]: 150 MG/KG BW ONCE, Promoter: NONE USED) is given as 23/39 (59%), 7/30 (23%), 61%, p<0.05 and the “tumour outcome (control, treated, inhibition, significance)” value (Carcinogen: 4-(METHYLNITROSAMINO)-1-(3-PYRIDYL)-1-BUTANONE [64091-50-5], Dose [Inhibitor]: 2 MMOL/KG IN DIET FOR 17 WK BEGINNING 1 WK PRIOR TO FIRST CARCINOGEN DOSE (STUDY DURATION: 17 WK), Species: MOUSE, Strain/Sex: A/J/FEMALE, Target Tissue: Type of Lesion: LUNG: ADENOMA, Dose [Carcinogen]: 10 UMOL ONCE 1 WK POST FIRST INHIBITOR DOSE (STUDY DURATION: 17 WK), Promoter: NONE) is given as 100%, 100%, 0%, not significant. For the same molecule, the “tumour outcome (control, treated, inhibition, significance)” value (Carcinogen: 4-(METHYLNITROSAMINO)-1-(3-PYRIDYL)-1-BUTANONE [64091-50-5], Dose [Inhibitor]: 2 MMOL/KG IN DIET FOR 53 WK BEGINNING 1 WK PRIOR TO FIRST CARCINOGEN DOSE (STUDY DURATION: 53 WK), Species: MOUSE, Strain/Sex: A/J/FEMALE, Target Tissue: Type of Lesion: LUNG: ADENOMA OR ADENOCARCINOMA, Dose [Carcinogen]: 10 UMOL ONCE 1 WK POST FIRST INHIBITOR DOSE (STUDY DURATION: 53 WK), Promoter: NONE) was 100%, 100%, 0%, not significant, the “tumour outcome (control, treated, inhibition, significance)” value (Carcinogen: 4-(METHYLNITROSAMINO)-1-(3-PYRIDYL)-1-BUTANONE [64091-50-5], Dose [Inhibitor]: 4 MMOL/KG IN DIET FOR 17 WK BEGINNING 1 WK PRIOR TO FIRST CARCINOGEN DOSE (STUDY DURATION: 17 WK), Species: MOUSE, Strain/Sex: A/J/FEMALE, Target Tissue: Type of Lesion: LUNG: ADENOMA, Dose [Carcinogen]: 10 UMOL ONCE 1 WK POST FIRST INHIBITOR DOSE (STUDY DURATION: 17 WK), Promoter: NONE) was 100%, 100%, 0%, not significant and the “tumour outcome (control, treated, inhibition, significance)” value (Carcinogen: 4-(METHYLNITROSAMINO)-1-(3-PYRIDYL)-1-BUTANONE [64091-50-5], Dose [Inhibitor]: 4 MMOL/KG IN DIET FOR 53 WK BEGINNING 1 WK PRIOR TO FIRST CARCINOGEN DOSE (STUDY DURATION: 53 WK), Species: MOUSE, Strain/Sex: A/J/FEMALE, Target Tissue: Type of Lesion: LUNG: ADENOMA OR ADENOCARCINOMA, Dose [Carcinogen]: 10 UMOL ONCE 1 WK POST FIRST INHIBITOR DOSE (STUDY DURATION: 53 WK), Promoter: NONE) was 100%, 93%, 7%, not significant. The “tumour outcome (control, treated, inhibition, significance)” value (Carcinogen: 7,12-DIMETHYLBENZ[A]ANTHRACENE, 57-97-6, Dose [Inhibitor]: 0, 1 MMOL/KG IN DIET FOR THE DURATION OF STUDY BEGINNING 1 WK PRIOR TO CARCINOGEN DOSE (STUDY DURATION: 105 WK), Species: RAT, Strain/Sex: SPRAGUE-DAWLEY/FEMALE, Target Tissue: Type of Lesion: MAMMARY GLAND: TUMOR, Dose [Carcinogen]: 15 MG IN 1 ML SESAME OIL ONCE, Promoter: NONE USED) was 88%, 73%, 17%, not significant, the “tumour outcome (control, treated, inhibition, significance)” value (Carcinogen: 7,12-DIMETHYLBENZ[A]ANTHRACENE, 57-97-6, Dose [Inhibitor]: 0, 2 MMOL/KG IN DIET FOR THE DURATION OF STUDY BEGINNING 1 WK PRIOR TO CARCINOGEN DOSE (STUDY DURATION: 105 WK), Species: RAT, Strain/Sex: SPRAGUE-DAWLEY/FEMALE, Target Tissue: Type of Lesion: MAMMARY GLAND: TUMOR, Dose [Carcinogen]: 15 MG IN 1 ML SESAME OIL ONCE, Promoter: NONE USED) was 88%, 33%, 63%, not significant and the “tumour outcome (control, treated, inhibition, significance)” value (Carcinogen: 7,12-DIMETHYLBENZ[A]ANTHRACENE, 57-97-6, Dose [Inhibitor]: 0, 2 MMOL/KG OF DIET FOR 15.5 WK BEGINNING 10 D PRIOR TO CARCINOGEN DOSE (STUDY DURATION: 17 WK), Species: RAT, Strain/Sex: SPRAGUE-DAWLEY/FEMALE, Target Tissue: Type of Lesion: MAMMARY GLAND: TUMOR, Dose [Carcinogen]: 15 MG IN 1 ML OF SESAME OIL ONCE AT 50 D OF AGE, Promoter: NONE USED) was 92%, 58%, 37%, not calculated. The “tumour outcome (control, treated, inhibition, significance)” value (Carcinogen: 7,12-DIMETHYLBENZ[A]ANTHRACENE, 57-97-6, Dose [Inhibitor]: 0, 2 MMOL/KG OF DIET FOR 18.5 WK BEGINNING 10 D PRIOR TO CARCINOGEN DOSE (STUDY DURATION: 18.5 WK), Species: RAT, Strain/Sex: SPRAGUE-DAWLEY/FEMALE, Target Tissue: Type of Lesion: MAMMARY GLAND: TUMOR, Dose [Carcinogen]: 15 MG IN 1 ML OF SESAME OIL ONCE AT 50 D OF AGE, Promoter: NONE USED) was 83%, 33%, 60%, not calculated, the “tumour outcome (control, treated, inhibition, significance)” value (Carcinogen: 7,12-DIMETHYLBENZ[A]ANTHRACENE, 57-97-6, Dose [Inhibitor]: 0, 2 MMOL/KG OF DIET FOR 20 D BEGINNING 10 D PRIOR TO CARCINOGEN DOSE (STUDY DURATION: 18.5 WK), Species: RAT, Strain/Sex: SPRAGUE-DAWLEY/FEMALE, Target Tissue: Type of Lesion: MAMMARY GLAND: TUMOR, Dose [Carcinogen]: 15 MG IN 1 ML OF SESAME OIL ONCE AT 50 D OF AGE, Promoter: NONE USED) was 100%, 67%, 33%, not calculated and the “tumour outcome (control, treated, inhibition, significance)” value (Carcinogen: 7,12-DIMETHYLBENZ[A]ANTHRACENE, 57-97-6, Dose [Inhibitor]: 0.75 MMOL/KG OF DIET IN 25 ML OF THE VEHICLE (ETHANOL/TRICAPRYLIN 1:4 (VOL/VOL) PLUS 6% (WT/VOL) ALPHA-TOCOPHEROL) BEGIN, Species: RAT, Strain/Sex: SPRAGUE-DAWLEY/FEMALE, Target Tissue: Type of Lesion: MAMMARY GLAND: TUMOR, Dose [Carcinogen]: 75 MG/KG BW IN 1.0 ML SESAME OIL ONCE, Promoter: NONE USED) was 70%, 65%, 7%, not significant.
